PubChem BioAssay (NCI)
Several values for one entry are separate records, joined by “and”; a condition that tells them apart may be missing. Equal entries are not always repeated.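 Grown in 96-well plates, cells were treated for 48 hours with each compound at five concentrations. Insufficient inhibition: endpoint recorded as highest concentration tested. GI50 = concentration required for 50% inhibition of growth. TGI denotes the concentration required for complete inhibition of growth.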

Legend:
Experiment in all cases: growth of human tumour cells (NCI), 48 h
LOX IMVI melanoma = test system: LOX IMVI melanoma
HCT-15 colon = test system: HCT-15 colon
SW-620 colon = test system: SW-620 colon
786-0 renal = test system: 786-0 renal
HL-60(TB) leukemia = test system: HL-60(TB) leukemia
SK-MEL-28 melanoma = test system: SK-MEL-28 melanoma
ACHN renal = test system: ACHN renal
A498 renal = test system: A498 renal
IGROV1 ovarian = test system: IGROV1 ovarian
NCI-H23 lung = test system: NCI-H23 lung

Row | Structure (SMILES) | GI50 (LOX IMVI melanoma) [µM] | TGI (LOX IMVI melanoma) | GI50 (HCT-15 colon) [µM] | TGI (HCT-15 colon) [µM] | GI50 (SW-620 colon) [µM] | TGI (SW-620 colon) [µM] | GI50 (786-0 renal) [µM] | TGI (786-0 renal) [µM] | GI50 (HL-60(TB) leukemia) [µM] | TGI (HL-60(TB) leukemia) | GI50 (SK-MEL-28 melanoma) [µM] | TGI (SK-MEL-28 melanoma) [µM] | GI50 (ACHN renal) [µM] | TGI (ACHN renal) | GI50 (A498 renal) [µM] | TGI (A498 renal) [µM] | GI50 (IGROV1 ovarian) [µM] | TGI (IGROV1 ovarian) [µM] | GI50 (NCI-H23 lung) [µM] | TGI (NCI-H23 lung) [µM]
1 | Brc1ccc2c(c1)-c1ccccc1C1=NCCN12 | 0.526 | 10.6 µM | 0.68 | 10.8 | 0.44 | 10.4 | 1.61 | 11.7 | 2.45 | 5.65 µM | 1.8 | 3.63 | 0.519 | 12.4 µM | 0.866 | 2.36 | 1.61 | 11.2 | 1.8 | 11.3
2 | COc1ccc(S(=O)(=O)NCCCNc2nccc(-c3c(-c4ccc(F)cc4)nc4sccn34)n2)cc1 | 5.53 | > 100 µM | 3.6 | > 100 | 24 | > 100 | 5.83 | > 100 | 7.51 | > 100 µM | 9.5 | > 100 | 2.73 | > 100 µM | 1.21 | 8.37 | 5.59 | > 100 | 15.3 | > 100
3 | CS(=O)(=O)Nc1ccc(Nc2c3ccccc3nc3cc(Cl)ccc23)cc1 | 0.406 | 4.79 µM | 1.37 | 14.2 | 0.686 | 15.4 | 0.857 | 15.6 | 0.843 | 24.6 µM | 3.62 | 19.2 | 0.343 | 9.57 µM | 1.15 | 7.22 | 1.62 | 19 | 1.67 | 18.9
4 | Cc1nc(-c2cccnc2)sc1C(=O)/C=C/c1ccc(Cl)cc1Cl | – | > 100 µM | – | > 100 | – | > 100 | – | > 100 | – | > 100 µM | – | > 100 | – | > 100 µM | – | > 100 | – | > 100 | – | > 100
5 | CC(=O)OCC1OC(OC(C)=O)C(NC#N)C(OC(C)=O)C1OC(C)=O (stereo unspecified) | – | > 100 µM | – | > 100 | – | > 100 | – | > 100 | – | > 100 µM | – | > 100 | – | > 100 µM | – | > 100 | – | > 100 | – | > 100
6 | COc1cccc(OC)c1/C=N\N1C(=O)c2ccccc2C1=O | – | > 100 µM | – | > 100 | – | > 100 | – | > 100 | – | 79.8 µM | – | > 100 | – | > 100 µM | – | > 100 | – | > 100 | – | > 100
7 | OCCn1c(-c2ccncc2)c(-c2ccc(F)cc2)c2ncccc21 | > 25 | > 25 µM | > 25 | > 25 | > 25 | > 25 | > 25 | > 25 | > 25 | > 25 µM | > 25 | > 25 | 24.8 | > 25 µM | > 20.3 | > 25 | > 25 | > 25 | > 25 | > 25
8 | CN(C)C(=O)c1cc2cnc(Nc3ccc(N4CCNCC4)cn3)nc2n1C1CCCC1 | 4.44 | 26.3 µM | 16.6 | > 100 | 1.21 | 66 | 11.4 | 49.8 | 1.74 | 28.1 µM | 16.1 | 48.3 | 7.89 | > 100 µM | 11.8 | 30.9 | 19.5 | > 100 | 13.9 | 63.2
9 | CCOC(=O)c1c(/C=N\Nc2ccccc2)nc2ccccc2c1-c1ccccc1 | – | > 100 µM | – | > 100 | – | > 100 | – | > 100 | – | 50.1 µM | – | > 100 | – | > 100 µM | – | > 100 | – | > 100 | – | > 100
10 | COc1cc(/C=C/C(=O)c2c(-c3ccc(Cl)cc3)nc3sc(C)nn23)cc(OC)c1OC | 18.4 | > 100 µM | 15.8 | > 100 | 10.2 | > 100 | 51.2 | > 100 | 5.94 | 40.6 µM | > 100 | > 100 | 20.8 | > 100 µM | 51.9 | > 100 | 70.1 | > 100 | 24.8 | > 100
11 | COc1cc([C@H]2c3cc(O)c(OC)cc3C[C@]3(O)[C@@H]2CO[C@@H]3O)ccc1O | – | > 100 µM | – | > 100 | – | > 100 | – | > 100 | – | > 100 µM | – | > 100 | – | > 100 µM | – | > 100 | – | > 100 | – | > 100
12 | COc1ccc(C[C@H](N)C(=O)N[C@@H]2[C@@H](CO)OC(n3cnc4c(N(C)C)ncnc43)[C@@H]2O)cc1 (stereo partly specified) | 0.202 | 0.839 µM | 6.63 | 29.9 | – | 0.792 | – | 1.24 | 0.454 | 1.7 µM | 0.479 | 1.13 | – | 3.19 µM | 0.189 | 1.09 | 0.539 | 1.73 | 0.553 | 1.82
13 | CC(C)(CCc1nc2ccccc2[nH]1)C(=O)O | – | > 100 µM | – | > 100 | – | > 100 | – | > 100 | – | > 100 µM | – | > 100 | – | > 100 µM | – | > 100 | – | > 100 | – | > 100
14 | CCc1c[nH]c2ncnc(N3CC[C@](N)(CNC(=O)c4ccc(F)cc4F)C3)c12 | 26.2 | > 100 µM | 15.5 | > 100 | 23.1 | > 100 | 0.479 | 19.8 | 56.2 | > 100 µM | 7.46 | > 100 | 9.46 | > 100 µM | 0.245 | 1.73 | 0.207 | 6.67 | 18.6 | > 100
15 | CCOC(=O)C1=C(O)c2c(OC)ccc(OC)c2C(=O)C1=O | – | > 100 µM | – | > 100 | – | > 100 | – | > 100 | – | > 100 µM | – | > 100 | – | > 100 µM | – | > 100 | – | > 100 | – | > 100
16 | CCCNc1ncnc2c1cnn2C | – | > 100 µM | – | > 100 | – | > 100 | – | > 100 | – | > 100 µM | – | > 100 | – | > 100 µM | – | > 100 | – | > 100 | – | > 100
17 | Oc1ccc(/C=N/Nc2nnc(N/N=C/c3ccc(O)cc3O)c3ccccc23)c(O)c1 | 0.277 | 0.871 µM and 1.5 µM | 0.332 | – | – | 7.71 | 0.593 | 2.46 | 0.376 | 0.598 µM and 4.81 µM | 0.552 | 5.26 | 0.358 | 0.422 µM and 3.94 µM | 1.33 | 3.51 | 0.493 | 3.24 | 0.707 | 2.77
18 | O=c1cccccc1[O-].O=c1cccccc1[O-].O=c1cccccc1[O-].[Dy+3] | – | > 100 µM | – | > 100 | – | > 100 | – | > 100 | – | 54.3 µM | – | > 100 | – | > 100 µM | 80.7 | > 100 | – | > 100 | – | 66.4
19 | CC(C)c1nc(Cl)c(Cl)c(Cl)n1 | – | 1.71 µM | – | 17.7 | – | 15.6 | – | 16.1 | – | 5.4 µM | – | 40.5 | – | 2.51 µM | – | 52 | – | 19.5 | – | 22.3
20 | CN1OC(CO)CC12C1CC3CC(C1)CC2C3 (stereo unspecified) | – | > 100 µM | – | > 100 | – | > 100 | – | > 100 | – | > 100 µM | – | > 100 | – | > 100 µM | – | > 100 | – | > 100 | – | > 100
21 | CCn1c(SC)nnc1-c1cc2c([nH]c3ccccc32)c(-c2cccc(O)c2)n1 | 2.51 | 29.1 µM | 0.95 | 51.6 | 1.44 | > 100 | 2.77 | 10.9 | 0.929 | 7.86 µM | 2.69 | 21 | 2.12 | 6.47 µM | 1.42 | 10.9 | 2.57 | 52 | 4.51 | 50.6
22 | N#Cc1c(N/N=C/c2c(Cl)cccc2Cl)nc(N)nc1N1CCCC1 | 2.16 | > 100 µM | 0.645 | 20 | 1.38 | > 100 | 3.93 | > 100 | 3.4 | 7.04 µM | 16.4 | > 100 | 3.18 | > 100 µM | 0.502 | 3.18 | 0.783 | 97.3 | 1.16 | 9.11
23 | O=C1COc2c(CCNCCN(C(=O)CCNCCc3ccc(Cl)c(Cl)c3)C3CCCCC3)ccc(O)c2N1 | 15.6 | 30.2 µM | 15.7 | 31.2 | 16 | 31 | 17.2 | 32.9 | 14.2 | 32.1 µM | 14.8 | 29.3 | 15.2 | 29.1 µM | 13.9 | 28.4 | 15 | 30.1 | 18.1 | 33.9
